Experimental data taken from patent US20240415819A1, “MACROCYCLIC COMPOUNDS AS PROTEASOME SUBUNIT BETA TYPE-5 INHIBITORS” (Lead Discovery Center GmbH, priority 2021, published 2024).

How the values were obtained:
[1] = target: T1, β5 subunit of the human constitutive proteasome (CPS) (Homo sapiens, UniProt P28074); experiment: β5 inhibition assay, human constitutive proteasome (Suc-LLVY-AMC); format: biochemical; conditions: IC50 class, Suc-LLVY-AMC substrate
T1 construct: purchased Boston Biochem E-360
Experimental: The enzymatic activity of the β5 subunit of the human constitutive proteasome (CPS) is analyzed. In another assay, which differs from the assay of the human constitutive proteasome only in using the human immunoproteasome (IPS) the enzymatic activity of the β5 subunit of the human immunoproteasome (IPS) is analyzed. […] Inhibition is indicated as IC50 [nM] (“-”=not measured).

[2] = system: A549 (human lung carcinoma cell line); experiment: Glo assay of A549 cells (Table 3; ProteasomeGlo plating scheme); format: cell-based; conditions: Homo sapiens; A549 cells; read-out: PGLo A549
Procedure, shortened: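 IC50 values (nM) come from a cell-based chymotrypsin-like Proteasome-Glo luminescence assay. Compound exposure ran 105 min at 37° C.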

[3] = system: Hs 746T (human gastric carcinoma cell line); experiment: 48 hr CTG viability assay, Hs 746T; format: cell-based; conditions: Hs746T, 48 hr CTG, read-out: Hs 746T IC50
Procedure, shortened: (§1)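 Growth inhibition by compound over 48 h; IC50 (nM) derived from duplicate CellTiter-Glo luminescence readings across 0.0015–10 uM.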

[4] = target: T2, β5 subunit of the human immunoproteasome (IPS) (Homo sapiens, UniProt P28062); experiment: β5 inhibition assay, human immunoproteasome (Suc-LLVY-AMC); format: biochemical; conditions: IC50 class, Suc-LLVY-AMC substrate
T2 construct: purchased Boston Biochem E-370
Procedure, shortened: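 Human immunoproteasome (1 nM final) was preincubated 10 min at RT with compound in 100 mM HEPES pH 7.5, 50 mM NaCl, 0.02% SDS, 1 mM DTT. Suc-LLVY-AMC (22.6 μM final) was then added for 4 h at RT in the dark. After stopping with 1 μM bortezomib, AMC fluorescence was read (ex 355/em 460 nm).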

[5] = system: RPMI 8226 (B lymphocyte cell line, multiple myeloma); experiment: 48 hr CTG viability assay, RPMI 8226; format: cell-based; conditions: Homo sapiens, RPMI-8226; 48 hr CTG; read-out: RPMI-8226 IC50
Procedure, shortened: as §1

[6] = system: MM1 S (B lymphoblast cell line); experiment: 48 hr CTG viability assay, MM1S; format: cell-based; conditions: Homo sapiens, 48 hr CTG, read-out: MM1S IC50
Procedure, shortened: as §1

SMILES | IC50 [1] [nM] | IC50 [2] [nM] | IC50 [3] [nM] | IC50 [4] [nM] | IC50 [5] [nM] | IC50 [6] [nM]
Cc1ccc2cc1CNC(=O)[C@H](CCc1ccccc1)NC(=O)[C@@H](N1CCCC1=O)CC(=O)N1CCCC(CCO2)C1 (stereo partly drawn) [Compound 728, (9S,12S)-5^4-methyl-12-(2-oxopyrrolidin-1-yl)-9-phenethyl-4-oxa-7,10-diaza-1(3,1)-piperidina-5(1,3)-benzenacyclotetradecaphane-8,11,14-trione] | 100 to 500 | 500 to 1000 | 1000 to 5000 | 100 to 500 | 100 to 500 | 100 to 500
Cc1ccc2cc1CNC(=O)[C@H](CCc1ccccc1)NC(=O)[C@@H](NC(=O)CCOC1CCC1)CC(=O)N1CCCC(CCO2)C1 (stereo partly drawn) [Compound 595, 3-cyclobutoxy-N-((9S,12S)-5^4-methyl-8,11,14-trioxo-9-phenethyl-4-oxa-7,10-diaza-1(3,1)-piperidina-5(1,3)-benzenacyclotetradecaphane-12-yl)propanamide] | < 100 | < 100 | < 100 | < 100 | < 100 | < 100
Cc1ccc2cc1CNC(=O)[C@H](CCC(C)C)NC(=O)[C@@H](NC(=O)Cc1cn3ccsc3n1)CC(=O)N1CCCC(CCO2)C1 (stereo partly drawn) [Compound 583, 2-(imidazo[2,1-b]thiazol-6-yl)-N-((9S,12S)-9-isopentyl-5^4-methyl-8,11,14-trioxo-4-oxa-7,10-diaza-1(3,1)-piperidina-5(1,3)-benzenacyclotetradecaphane-12-yl)acetamide] | < 100 | < 100 | < 100 | < 100 | < 100 | < 100
COc1ccccc1CCCOCCC(=O)N[C@H]1CC(=O)N2CCCC(CCOc3ccc(C)c(c3)CNC(=O)[C@H](CCc3ccccc3)NC1=O)C2 (stereo partly drawn) [Compound 637, 3-(3-(2-methoxyphenyl)propoxy)-N-((9S,12S)-5^4-methyl-8,11,14-trioxo-9-phenethyl-4-oxa-7,10-diaza-1(3,1)-piperidina-5(1,3)-benzenacyclotetradecaphane-12-yl)propanamide] | < 100 | < 100 | < 100 | < 100 | < 100 | < 100
Cc1ccc2cc1CNC(=O)[C@H](CCc1ccccc1)NC(=O)[C@@H](NC(=O)NC1CCCCC1)CC(=O)N1CCCC(CCO2)C1 (stereo partly drawn) [Compound 593, 1-cyclohexyl-3-((9S,12S)-5^4-methyl-8,11,14-trioxo-9-phenethyl-4-oxa-7,10-diaza-1(3,1)-piperidina-5(1,3)-benzenacyclotetradecaphane-12-yl)urea] | < 100 | < 100 | < 100 | < 100 | < 100 | < 100
Cc1ccc2cc1CNC(=O)[C@H](CCc1ccccc1)NC(=O)[C@@H](NC(=O)CCOCC1CCC1)CC(=O)N1CCCC(CCO2)C1 (stereo partly drawn) [Compound 628, 3-(cyclobutylmethoxy)-N-((9S,12S)-5^4-methyl-8,11,14-trioxo-9-phenethyl-4-oxa-7,10-diaza-1(3,1)-piperidina-5(1,3)-benzenacyclotetradecaphane-12-yl)propanamide] | < 100 | < 100 | < 100 | < 100 | < 100 | < 100
Cc1ccc2cc1CNC(=O)[C@H](CCc1ccccc1)NC(=O)[C@@H](NC(=O)CCN1CC3(CCOCC3)C1)CC(=O)N1CCCC(CCO2)C1 (stereo partly drawn) [Compound 658, N-((9S,12S)-5^4-methyl-8,11,14-trioxo-9-phenethyl-4-oxa-7,10-diaza-1(3,1)-piperidina-5(1,3)-benzenacyclotetradecaphane-12-yl)-3-(7-oxa-2-azaspiro[3.5]nonan-2-yl)propanamide] | < 100 | < 100 | < 100 | < 100 | < 100 | < 100
Cc1ccc2cc1CNC(=O)[C@H](CCc1ccccc1)NC(=O)[C@@H](NC(=O)CCNCc1ccc(OCC3CCCCC3)cc1)CC(=O)N1CCCC(CCO2)C1 (stereo partly drawn) [Compound 706, 3-((4-(cyclohexylmethoxy)benzyl)amino)-N-((9S,12S)-5^4-methyl-8,11,14-trioxo-9-phenethyl-4-oxa-7,10-diaza-1(3,1)-piperidina-5(1,3)-benzenacyclotetradecaphane-12-yl)propanamide] | < 100 | < 100 | < 100 | < 100 | < 100 | < 100
Cc1ccc2cc1CNC(=O)[C@H](CCc1ccccc1)NC(=O)[C@@H](NC(=O)CCNC1CC3(COC3)C1)CC(=O)N1CCCC(CCO2)C1 (stereo partly drawn) [Compound 720, 3-((2-oxaspiro[3.3]heptan-6-yl)amino)-N-((9S,12S)-5^4-methyl-8,11,14-trioxo-9-phenethyl-4-oxa-7,10-diaza-1(3,1)-piperidina-5(1,3)-benzenacyclotetradecaphane-12-yl)propanamide] | < 100 | < 100 | 500 to 1000 | < 100 | 100 to 500 | 100 to 500
Cc1ccc2cc1CNC(=O)[C@H](CCc1ccccc1)NC(=O)[C@@H](NC(=O)CCOC1CCCC1)CC(=O)N1CCCC(CCO2)C1 (stereo partly drawn) [Compound 629, 3-(cyclopentyloxy)-N-((9S,12S)-5^4-methyl-8,11,14-trioxo-9-phenethyl-4-oxa-7,10-diaza-1(3,1)-piperidina-5(1,3)-benzenacyclotetradecaphane-12-yl)propanamide] | < 100 | < 100 | < 100 | < 100 | < 100 | < 100
C#CCC[C@@H]1NC(=O)[C@@H](NC(=O)Cc2cn3ccsc3n2)CC(=O)N2CCCC(CCOc3ccc(C)c(c3)CNC1=O)C2 (stereo partly drawn) [Compound 686, N-((9S,12S)-9-(but-3-yn-1-yl)-5^4-methyl-8,11,14-trioxo-4-oxa-7,10-diaza-1(3,1)-piperidina-5(1,3)-benzenacyclotetradecaphane-12-yl)-2-(imidazo[2,1-b]thiazol-6-yl)acetamide] | < 100 | < 100 | < 100 | < 100 | < 100 | < 100
Cc1ccc2cc1CNC(=O)[C@H](CCc1ccccc1)NC(=O)[C@@H](NC(=O)Cc1ccc(N)cc1C)CCCC(=O)NCCCCO2 [Compound 718, 2-(4-amino-2-methylphenyl)-N-((12S,15S)-1^4-methyl-8,13,16-trioxo-15-phenethyl-2-oxa-7,14,17-triaza-1(1,3)-benzenacyclooctadecaphane-12-yl)acetamide] | < 100 | < 100 | 100 to 500 | < 100 | 100 to 500 | < 100
Cc1ccc2cc1CNC(=O)[C@H](CCc1ccccc1)NC(=O)[C@@H](NC(=O)CCNS(=O)(=O)c1ccc(OCC3CCCCC3)cc1)CC(=O)N1CCCC(CCO2)C1 (stereo partly drawn) [Compound 672, 3-((4-(cyclohexylmethoxy)phenyl)sulfonamido)-N-((9S,12S)-5^4-methyl-8,11,14-trioxo-9-phenethyl-4-oxa-7,10-diaza-1(3,1)-piperidina-5(1,3)-benzenacyclotetradecaphane-12-yl)propanamide] | < 100 | < 100 | < 100 | < 100 | < 100 | < 100
